Assay results reported in patent publication US20240140953A1, “INHIBITORS OF MENIN-MLL INTERACTION” (BIOMEA FUSION, INC., priority 2018, published 2024).
Like-named read-outs stand apart in the source and are kept apart here.

Experiments:
[1] = system: MV-4-11; experiment: Long term proliferation assay (Table 3A), MV-4-11; assay type: cell-based; details: Homo sapiens, MV4-11
Protocol: Example 5b: IC50 determination of compounds of invention in various cell lines (Long Term Proliferation Assay)
The following 5 cell lines are used or can be used for the long term proliferation assay.
Compounds of invention are tested in the 5 suspension lines by 14-day long-term proliferation assay.
The compound is tested in 10-pt dose titration (client will determine the starting concentration and the dilution scheme) and the final DMSO concentration is kept at 0.2%.
Vehicle and media control are also included. All treatments are done in triplicate.
3 plates are used for each cell line and 15 plates are used for the 5 cell lines.
• 1) On Day 0, in a flat bottom 96-well plate, add 100 μL of cells per well at the densities optimized. • 2) Prepare compounds in DMSO at 500× final concentration. Dilute the compounds with DMSO at the dilution. • 3) Dilute the compounds in media at 3×final concentration. Add 50 μL of compound or DMSO at 3× final concentration to each well. Final volume in each well is 150 μL, and final concentration of DMSO is 0.2%. Also include 3 untreated control wells, by adding 50 μL of media alone. 4) Incubate plates for 96 hours. • 5) Count the cells using the Acumen, with capabilities for 96-well plates. Pipette cells up and down to mix in each well, and add desired volume of cells to a new flat bottom poly-D-lysine 96-well plate. Add Calcein AM at 1 μM final concentration. Let cells sit at RT for 10 mins followed by a quick spin to get cells settled on the bottom of the wells. Incubate the plate for additional 40 mins in the incubator. Take out the plate and read by Acumen. Calculate the cell numbers taken into account the dilution factors. • 6) Split the master plate. To do this take the total viable cell count calculated using step 5). Take the average of the replicates for each dose in order to be used in splitting the cells. • 7) Use a 96 well V-bottom plate to spin down the cells to remove old media and compound to split the cells. Based on the split ratio place the proper amount of media and cells into the V-bottom plate, and spin the plate at 1100 rpm for 5 minutes. • 8) Following the spin remove the media, careful not to disturb the cellpellet. • 9) Re-suspend pellet in 100 μL fresh media, and add to a new 96-well flat bottom plate. • 10) Add fresh compound, in the same manner as Step 3). • 11) Incubate plates for 72 hours. Repeat steps 5)-10) on Day 7. • 12) Incubate plates for 96 hours. Repeat Step 5)-10) on Day 11. • 13) Incubate 72 hours and repeat step 5) to take a final count. • 14) Data Analysis
To calculate growth for days 4, 7, 11, and 14: • Calculate the split factor for day 4 to 7, day 7 to 11, and day 11-14.

[2] = system: MV4-11 (MLL-AF4); experiment: Proliferation study, CellTiterGlo, 4 days (Example 102), MV4-11; assay type: cell-based, human; details: MV4-11, 4 days treatment; for IC50: CellTiterGlo; for MV4-11 (MLL-AF4) % max: maximal inhibition
From the text: The objective of the study was to evaluate the ability of representative compounds of the present invention, inhibitors of Menin/MLL interaction to inhibit cell proliferation. The proliferation inhibitory effect was investigated in two human MLL-leukemia cells selected on the bases of MLL fusion protein and listed in Table 102. HL-60 cell line was used as negative control.
ATP is present in all metabolically active cells and is considered as a marker for cell viability and proliferation. The metabolic cell activity was determined using the CellTiter-Glo kit from Promega, an ATP monitoring system based on the production of luminescence by the reaction of ATP with added UltraGlo® recombinant luciferase (Kawano et al., 2016), according to the supplier's experimental recommendations.
The described assay evaluates the ability of 4 representative compounds to inhibit the cell proliferation in the human MLL-leukemia cells plus a negative control cell line.
The assay provides potency values (IC50) for each test compound at a single time point Day 4 (T4).
Seven concentrations of the compounds (2.00E-05-6.67E-06-2.22E-06-7.41E-07-2.47E-07-8.23E-08-2.74E-08M), were assessed in duplicate in an individual test occasion in all the cell lines. MI-503 (Borkin et al., 2015) was used as reference compound and was tested at the same concentrations as the NCEs. 100% of proliferation is represented by the untreated cells (0.2% DMSO). The cell growth was monitored up to 4 days in culture.
MV4-11, MOLM-13 and HL-60 cells (see Table 2) were maintained in RPMI-1640 medium (Invitrogen, Cat. n. 618700, Batch n. 1965930) supplemented with 10% of Heat Inactivated FBS (Invitrogen, Cat n. 10500, Batch n. 08Q8078K) and 1% Pen-Strep (Invitrogen, Cat. N. 15140, Batch n. 1910859) and cultured at 37° C. in a humidified incubator with 5% CO2. All the cell lines grow in suspension and the cell density was maintained in a range of 2×10^5-1×10^6 viable cells/ml. Cells were pelleted at 130 g×5 min and conditioned medium was used to dilute the cell suspension.
Test items were dissolved in glass vials at 10 mM in DMSO with purity ≥99.9% (Sigma, D8418, batch n. SHBH4245V) and stored at −20° C. in 1.5 mL Eppendorf tubes.
Serial dilutions 1 to 3 in DMSO 100% were prepared starting from a 10 mM stock solutions to generate 7 points concentration response curve (CRC).
For each plate to test, one 0.4 μL copy plate and four 0.3 μL copy plates were then stamped into 96-well plates not treated for cell adhesion (Sarstedt—cat.no. 82.1581.001) by acoustic liquid Handling, Echo, at a concentration which was 500 fold the final assay concentration. Stamped plates were stored at −20° C. The final concentrations for the reference compound, MI-503, and the test items were: 2.00E-05, 6.67E-06, 2.22E-06, 7.41E-07, 2.47E-07, 8.23E-08 and 2.74E-08 M.
Cells were plated in 96-well flat bottom microtiter plates at cell density of 15,000 cells/ml for HL-60, 1000 cells/ml for MOLM-13 and 10,000 cell/ml for MV4-11. Cells were treated with 0.2% DMSO (Sigma, D8418, batch n. SHBH4245V) or serial dilutions of compounds (0.027 μM-20 μM) in DMSO (0.2% final concentration). Cells were incubated in a 5% CO2 incubator at 37° C. for 4 days. A CellTiterGlo viability assay (Promega) was employed. Luminescence was read by using VictorV (Perkin Elmer) multilabel plate reader using the standard protocol for luminescence in 96 well plate. The experiment was performed in duplicate.
Data were expressed as % of inhibition compared to the 0.2% DMSO negative control, and was calculated as follows: […]
CRCs were analysed by GraphPad and IC50 values were calculated by non-linear regression using 4 parameter-logistic equation. IC50 (μM) values were reported in the final data table. The curve fittings were performed leaving free all the parameters. Any constrain were reported in the results table.

[3] = MV-4-11, Day 4, read-out: MV-4-11 Day 4 IC50
[4] = Homo sapiens, MV4-11, 96 h, read-out: MV4-11 (MLL-AF4) IC50
[5] = Homo sapiens, MV4-11, 96 h, read-out: MV4-11 (MLL-AF4) pIC50 (converted)

SMILES | IC50 [1, 3] [nM] | IC50 ([1]; MV-4-11, Day 11, read-out: MV-4-11 Day 11 IC50) [nM] | IC50 [2, 4] [nM] | IC50 [2, 5] [nM] | MV4-11 (MLL-AF4) % max [2] [%] | IC50 ([2]; read-out: MV4-11 (MLL-AF4) IC50) [nM] | inhibition of cell viability (in words) ([2]; up to 20 μM)
O=C(Nc1ccc(-c2cc3c(N4CCOCC4)ncnc3[nH]2)cc1)Nc1cc(-c2cccnc2)n[nH]1 [Compound 9, 1-{4-[4-(morpholin-4-yl)-7H-pyrrolo[2,3-d]pyrimidin-6-yl]phenyl}-3-[3-(pyridin-3-yl)-1H-pyrazol-5-yl]urea] | 490 | 257 | 490 | 490 | 102 |  | 
Cn1nc(-c2cccnc2)cc1CC(=O)Nc1ccc(-c2cc3c(N4CCOCC4)ncnc3[nH]2)cc1 [Compound 11, 2-[1-methyl-3-(pyridin-3-yl)-1H-pyrazol-5-yl]-N-{4-[4-(morpholin-4-yl)-7H-pyrrolo[2,3-d]pyrimidin-6-yl]phenyl}acetamide] | 280 |  | 200 | 282 | 100 | 280 | 
O=C(Cc1cc(-c2cccnc2)n[nH]1)Nc1ccc(-c2nc3c(N4CCOCC4)ncnc3[nH]2)cc1 [Compound 12, N-{4-[6-(morpholin-4-yl)-9H-purin-8-yl]phenyl}-2-[3-(pyridin-3-yl)-1H-pyrazol-5-yl]acetamide] | 430 |  | 430 | 427 | 89 |  | fully inhibited
